Experimental data: ChEMBL document CHEMBL1671626, “In vitro profiling of ceftaroline against a collection of recent bacterial clinical isolates from across the United States” (2008)
Converted amounts (≈) assume the structure as drawn.

Key:
Assay type in all cases: functional
Enterococcus faecalis [1] = assay: Antibacterial activity against vancomycin-susceptible Enterococcus faecalis assessed as susceptible isolates by CLSI M7-A7 broth microdilution method
Staphylococcus aureus [2] = assay: Antibacterial activity against coagulase-negative and oxacillin-resistant Staphylococcus aureus assessed as susceptible isolates by CLSI M7-A7 broth microdilution method
Enterococcus faecium [3] = assay: Antibacterial activity against vancomycin-resistant Enterococcus faecium by CLSI M7-A7 broth microdilution method
Streptococcus pneumoniae = assay: Antibacterial activity against penicillin-susceptible Streptococcus pneumoniae assessed as susceptible isolates by CLSI M7-A7 broth microdilution method
Streptococcus agalactiae [4] = assay: Antibacterial activity against erythromycin-nonsusceptible Streptococcus agalactiae by CLSI M7-A7 broth microdilution method
Pasteurella multocida = assay: Antibacterial activity against Pasteurella multocida by CLSI M7-A7 broth microdilution method
Enterococcus faecalis [5] = assay: Antibacterial activity against vancomycin-susceptible Enterococcus faecalis assessed as resistant isolates by CLSI M7-A7 broth microdilution method
Streptococcus viridans [6] = assay: Antibacterial activity against penicillin-susceptible Streptococcus viridans assessed as resistant isolates by CLSI M7-A7 broth microdilution method
Enterococcus faecalis [7] = assay: Antibacterial activity against vancomycin-resistant Enterococcus faecalis by CLSI M7-A7 broth microdilution method
Staphylococcus aureus [8] = assay: Antibacterial activity against methicillin-susceptible Staphylococcus aureus assessed as susceptible isolates by CLSI M7-A7 broth microdilution method
Enterococcus faecalis [9] = assay: Antibacterial activity against vancomycin-resistant Enterococcus faecalis assessed as resistant isolates by CLSI M7-A7 broth microdilution method
Enterococcus faecium [10] = assay: Antibacterial activity against vancomycin-resistant Enterococcus faecium assessed as resistant isolates by CLSI M7-A7 broth microdilution method
Streptococcus pyogenes [11] = assay: Antibacterial activity against erythromycin-susceptible Streptococcus pyogenes assessed as susceptible isolates by CLSI M7-A7 broth microdilution method
Moraxella catarrhalis = assay: Antibacterial activity against beta lactamase-positive Moraxella catarrhalis by CLSI M7-A7 broth microdilution method
Streptococcus viridans [12] = assay: Antibacterial activity against penicillin-susceptible Streptococcus viridans assessed as susceptible isolates by CLSI M7-A7 broth microdilution method
Streptococcus agalactiae [13] = assay: Antibacterial activity against erythromycin-susceptible Streptococcus agalactiae assessed as susceptible isolates by CLSI M7-A7 broth microdilution method
Streptococcus viridans [14] = assay: Antibacterial activity against penicillin-nonsusceptible Streptococcus viridans by CLSI M7-A7 broth microdilution method
Streptococcus viridans [15] = assay: Antibacterial activity against penicillin-nonsusceptible Streptococcus viridans assessed as susceptible isolates by CLSI M7-A7 broth microdilution method
Streptococcus agalactiae [16] = assay: Antibacterial activity against erythromycin-nonsusceptible Streptococcus agalactiae assessed as susceptible isolates by CLSI M7-A7 broth microdilution method
Enterococcus faecalis [17] = assay: Antibacterial activity against vancomycin-susceptible Enterococcus faecalis by CLSI M7-A7 broth microdilution method
Staphylococcus aureus [18] = assay: Antibacterial activity against methicillin-susceptible Staphylococcus aureus by CLSI M7-A7 broth microdilution method
Staphylococcus aureus [19] = assay: Antibacterial activity against coagulase-negative and oxacillin-resistant Staphylococcus aureus by CLSI M7-A7 broth microdilution method
Streptococcus viridans [20] = assay: Antibacterial activity against penicillin-nonsusceptible Streptococcus viridans assessed as resistant isolates by CLSI M7-A7 broth microdilution method
Staphylococcus aureus [21] = assay: Antibacterial activity against coagulase-negative and oxacillin-susceptible Staphylococcus aureus assessed as susceptible isolates by CLSI M7-A7 broth microdilution method
Streptococcus pyogenes [22] = assay: Antibacterial activity against erythromycin-nonsusceptible Streptococcus pyogenes assessed as susceptible isolates by CLSI M7-A7 broth microdilution method
Streptococcus agalactiae [23] = assay: Antibacterial activity against erythromycin-susceptible Streptococcus agalactiae by CLSI M7-A7 broth microdilution method
Staphylococcus aureus [24] = assay: Antibacterial activity against methicillin-resistant Staphylococcus aureus by CLSI M7-A7 broth microdilution method
Streptococcus pyogenes [25] = assay: Antibacterial activity against erythromycin-susceptible Streptococcus pyogenes by CLSI M7-A7 broth microdilution method
Streptococcus pyogenes [26] = assay: Antibacterial activity against erythromycin-nonsusceptible Streptococcus pyogenes by CLSI M7-A7 broth microdilution method
Enterococcus faecium [27] = assay: Antibacterial activity against vancomycin-resistant Enterococcus faecium assessed as susceptible isolates by CLSI M7-A7 broth microdilution method
Streptococcus viridans [28] = assay: Antibacterial activity against penicillin-susceptible Streptococcus viridans by CLSI M7-A7 broth microdilution method
Staphylococcus aureus [29] = assay: Antibacterial activity against coagulase-negative and oxacillin-susceptible Staphylococcus aureus by CLSI M7-A7 broth microdilution method

For `CC(=O)NC[C@H]1CN(c2ccc(N3CCOCC3)c(F)c2)C(=O)O1` [LINEZOLID], the Activity (Enterococcus faecalis [1]) was 100%, the Activity (Staphylococcus aureus [2]) was 99.3% and the MIC50 (Enterococcus faecium [3]) was 2 µg/mL (≈ 5.93 µM). The MIC90 (Enterococcus faecium [3]) was 2 µg/mL (≈ 5.93 µM), the Activity (Streptococcus pneumoniae) was 100% and the MIC50 (Streptococcus agalactiae [4]) was 1 µg/mL (≈ 2.96 µM). The MIC90 (Streptococcus agalactiae [4]) was 1 µg/mL (≈ 2.96 µM), the MIC50 (Pasteurella multocida) was 4 µg/mL (≈ 11.9 µM) and the MIC90 (Pasteurella multocida) was > 4 µg/mL. For the same compound, the Activity (Enterococcus faecalis [5]) was 0%, the Activity (Streptococcus viridans [6]) was 0% and the MIC50 (Enterococcus faecalis [7]) was 2 µg/mL (≈ 5.93 µM). The MIC90 (Enterococcus faecalis [7]) was 2 µg/mL (≈ 5.93 µM), the Activity (Staphylococcus aureus [8]) was 100% and the Activity (Enterococcus faecalis [9]) was 0%. It also gave an Activity (Enterococcus faecium [10]) of 0%, an Activity (Streptococcus pyogenes [11]) of 100% and an MIC50 (Moraxella catarrhalis) of 4 µg/mL (≈ 11.9 µM). For the same compound, the MIC90 (Moraxella catarrhalis) was 4 µg/mL (≈ 11.9 µM), the Activity (Streptococcus viridans [12]) was 100% and the Activity (Streptococcus agalactiae [13]) was 100%. For the same compound, the MIC50 (Streptococcus viridans [14]) was 1 µg/mL (≈ 2.96 µM), the MIC90 (Streptococcus viridans [14]) was 1 µg/mL (≈ 2.96 µM) and the Activity (Streptococcus viridans [15]) was 100%. It also gave an Activity (Streptococcus agalactiae [16]) of 100%, an MIC50 (Enterococcus faecalis [17]) of 2 µg/mL (≈ 5.93 µM) and an MIC90 (Enterococcus faecalis [17]) of 2 µg/mL (≈ 5.93 µM). The MIC50 (Staphylococcus aureus [18]) was 2 µg/mL (≈ 5.93 µM), the MIC90 (Staphylococcus aureus [18]) was 2 µg/mL (≈ 5.93 µM) and the MIC50 (Staphylococcus aureus [19]) was 1 µg/mL (≈ 2.96 µM). The MIC90 (Staphylococcus aureus [19]) was 2 µg/mL (≈ 5.93 µM), the Activity (Streptococcus viridans [20]) was 0% and the Activity (Staphylococcus aureus [21]) was 100%. For the same compound, the Activity (Streptococcus pyogenes [22]) was 100%, the MIC (Streptococcus agalactiae [23]) was 1 µg/mL (≈ 2.96 µM) and the MIC50 (Streptococcus agalactiae [23]) was 1 µg/mL (≈ 2.96 µM). It also gave an MIC90 (Streptococcus agalactiae [23]) of 1 µg/mL (≈ 2.96 µM), an MIC50 (Staphylococcus aureus [24]) of 2 µg/mL (≈ 5.93 µM) and an MIC90 (Staphylococcus aureus [24]) of 2 µg/mL (≈ 5.93 µM). It also gave an MIC50 (Streptococcus pyogenes [25]) of 1 µg/mL (≈ 2.96 µM), an MIC90 (Streptococcus pyogenes [25]) of 1 µg/mL (≈ 2.96 µM) and an MIC (Streptococcus pyogenes [26]) of 1 µg/mL (≈ 2.96 µM). The MIC50 (Streptococcus pyogenes [26]) was 1 µg/mL (≈ 2.96 µM), the MIC90 (Streptococcus pyogenes [26]) was 1 µg/mL (≈ 2.96 µM) and the Activity (Enterococcus faecium [27]) was 100%. For the same compound, the MIC50 (Streptococcus viridans [28]) was 1 µg/mL (≈ 2.96 µM), the MIC90 (Streptococcus viridans [28]) was 1 µg/mL (≈ 2.96 µM) and the MIC50 (Staphylococcus aureus [29]) was 1 µg/mL (≈ 2.96 µM). It also gave an MIC90 (Staphylococcus aureus [29]) of 2 µg/mL (≈ 5.93 µM).
